# ChEMBL document CHEMBL1255175, “Synthesis, antimicrobial, and mosquito larvicidal activity of 1-aryl-4-methyl-3,6-bis-(5-methylisoxazol-3-yl)-2-thioxo-2,3,6,10b-tetrahydro-1H-pyrimido[5,4-c]quinolin-5-ones” (2010)
# Tested on: Bacillus subtilis
# Experiment: Antimicrobial activity against Bacillus subtilis MTCC 441
# Type: functional
# Details: not given
row,SMILES,MIC
1,COc1ccc(N2C(=S)N(c3cc(C)on3)C(C)=C3C(=O)N(c4cc(C)on4)c4ccccc4C32)cc1 (centres undefined),20 µg/mL
2,CC1=C2C(=O)N(c3cc(C)on3)c3ccccc3C2N(c2ccccc2)C(=S)N1c1cc(C)on1 (centres undefined),19 µg/mL
3,CC1=C2C(=O)N(c3cc(C)on3)c3ccccc3C2N(Cc2ccccc2)C(=S)N1c1cc(C)on1 (centres undefined),22 µg/mL
4,CC1=C2C(=O)N(c3cc(C)on3)c3ccccc3C2N(c2ccccc2Cl)C(=S)N1c1cc(C)on1 (centres undefined),8 µg/mL
5,O=C(O)c1cn(C2CC2)c2cc(N3CCNCC3)c(F)cc2c1=O [CIPROFLOXACIN],20 µg/mL

# Tested on: Lysinibacillus sphaericus
# Experiment: Antimicrobial activity against Bacillus sphaericus MTCC 511
# Type: functional
# Details: not given
row,SMILES,MIC
1,COc1ccc(N2C(=S)N(c3cc(C)on3)C(C)=C3C(=O)N(c4cc(C)on4)c4ccccc4C32)cc1 (centres undefined),15 µg/mL
2,CC1=C2C(=O)N(c3cc(C)on3)c3ccccc3C2N(c2ccccc2)C(=S)N1c1cc(C)on1 (centres undefined),15 µg/mL
3,CC1=C2C(=O)N(c3cc(C)on3)c3ccccc3C2N(Cc2ccccc2)C(=S)N1c1cc(C)on1 (centres undefined),18 µg/mL
4,CC1=C2C(=O)N(c3cc(C)on3)c3ccccc3C2N(c2ccccc2Cl)C(=S)N1c1cc(C)on1 (centres undefined),10 µg/mL
5,O=C(O)c1cn(C2CC2)c2cc(N3CCNCC3)c(F)cc2c1=O [CIPROFLOXACIN],20 µg/mL

# Tested on: Staphylococcus aureus
# Experiment: Antimicrobial activity against Staphylococcus aureus MTCC 96
# Type: functional
# Details: not given
row,SMILES,MIC
1,COc1ccc(N2C(=S)N(c3cc(C)on3)C(C)=C3C(=O)N(c4cc(C)on4)c4ccccc4C32)cc1 (centres undefined),10 µg/mL
2,CC1=C2C(=O)N(c3cc(C)on3)c3ccccc3C2N(c2ccccc2)C(=S)N1c1cc(C)on1 (centres undefined),15 µg/mL
3,CC1=C2C(=O)N(c3cc(C)on3)c3ccccc3C2N(Cc2ccccc2)C(=S)N1c1cc(C)on1 (centres undefined),25 µg/mL
4,CC1=C2C(=O)N(c3cc(C)on3)c3ccccc3C2N(c2ccccc2Cl)C(=S)N1c1cc(C)on1 (centres undefined),9 µg/mL

# Tested on: Pseudomonas aeruginosa
# Experiment: Antimicrobial activity against Pseudomonas aeruginosa MTCC 741
# Type: functional
# Details: not given
row,SMILES,MIC
1,COc1ccc(N2C(=S)N(c3cc(C)on3)C(C)=C3C(=O)N(c4cc(C)on4)c4ccccc4C32)cc1 (centres undefined),15 µg/mL
2,CC1=C2C(=O)N(c3cc(C)on3)c3ccccc3C2N(c2ccccc2)C(=S)N1c1cc(C)on1 (centres undefined),20 µg/mL
3,CC1=C2C(=O)N(c3cc(C)on3)c3ccccc3C2N(Cc2ccccc2)C(=S)N1c1cc(C)on1 (centres undefined),20 µg/mL
4,CC1=C2C(=O)N(c3cc(C)on3)c3ccccc3C2N(c2ccccc2Cl)C(=S)N1c1cc(C)on1 (centres undefined),5 µg/mL
5,O=C(O)c1cn(C2CC2)c2cc(N3CCNCC3)c(F)cc2c1=O [CIPROFLOXACIN],30 µg/mL

# Tested on: Klebsiella aerogenes
# Experiment: Antimicrobial activity against Klebsiella aerogenes MTCC 39
# Type: functional
# Details: not given
row,SMILES,MIC
1,COc1ccc(N2C(=S)N(c3cc(C)on3)C(C)=C3C(=O)N(c4cc(C)on4)c4ccccc4C32)cc1 (centres undefined),14 µg/mL
2,CC1=C2C(=O)N(c3cc(C)on3)c3ccccc3C2N(c2ccccc2)C(=S)N1c1cc(C)on1 (centres undefined),13 µg/mL
3,CC1=C2C(=O)N(c3cc(C)on3)c3ccccc3C2N(Cc2ccccc2)C(=S)N1c1cc(C)on1 (centres undefined),15 µg/mL
4,CC1=C2C(=O)N(c3cc(C)on3)c3ccccc3C2N(c2ccccc2Cl)C(=S)N1c1cc(C)on1 (centres undefined),8 µg/mL

# Tested on: Chromobacterium violaceum
# Experiment: Antimicrobial activity against Chromobacterium violaceum MTCC 2656
# Type: functional
# Details: not given
row,SMILES,MIC
1,COc1ccc(N2C(=S)N(c3cc(C)on3)C(C)=C3C(=O)N(c4cc(C)on4)c4ccccc4C32)cc1 (centres undefined),18 µg/mL
2,CC1=C2C(=O)N(c3cc(C)on3)c3ccccc3C2N(c2ccccc2)C(=S)N1c1cc(C)on1 (centres undefined),18 µg/mL
3,CC1=C2C(=O)N(c3cc(C)on3)c3ccccc3C2N(Cc2ccccc2)C(=S)N1c1cc(C)on1 (centres undefined),18 µg/mL
4,CC1=C2C(=O)N(c3cc(C)on3)c3ccccc3C2N(c2ccccc2Cl)C(=S)N1c1cc(C)on1 (centres undefined),6 µg/mL
5,O=C(O)c1cn(C2CC2)c2cc(N3CCNCC3)c(F)cc2c1=O [CIPROFLOXACIN],25 µg/mL

# Tested on: Aspergillus niger
# Experiment: Antifungal activity against Aspergillus niger MTCC 282 at 30 ug/ml
# Type: functional
# Details: read-out: DIZ
row,SMILES,zone of inhibition at 30 µg/mL
1,COc1ccc(N2C(=S)N(c3cc(C)on3)C(C)=C3C(=O)N(c4cc(C)on4)c4ccccc4C32)cc1 (centres undefined),35 mm
2,CC1=C2C(=O)N(c3cc(C)on3)c3ccccc3C2N(c2ccccc2)C(=S)N1c1cc(C)on1 (centres undefined),25 mm
3,CC1=C2C(=O)N(c3cc(C)on3)c3ccccc3C2N(Cc2ccccc2)C(=S)N1c1cc(C)on1 (centres undefined),31 mm
4,CC1=C2C(=O)N(c3cc(C)on3)c3ccccc3C2N(c2ccccc2Cl)C(=S)N1c1cc(C)on1 (centres undefined),30 mm

# Tested on: Aspergillus niger
# Experiment: Antifungal activity against Aspergillus niger MTCC 282 at 100 ug/ml
# Type: functional
# Details: read-out: DIZ
row,SMILES,zone of inhibition at 100 µg/mL
1,COc1ccc(N2C(=S)N(c3cc(C)on3)C(C)=C3C(=O)N(c4cc(C)on4)c4ccccc4C32)cc1 (centres undefined),60 mm
2,CC1=C2C(=O)N(c3cc(C)on3)c3ccccc3C2N(c2ccccc2)C(=S)N1c1cc(C)on1 (centres undefined),45 mm
3,CC1=C2C(=O)N(c3cc(C)on3)c3ccccc3C2N(Cc2ccccc2)C(=S)N1c1cc(C)on1 (centres undefined),61 mm
4,CC1=C2C(=O)N(c3cc(C)on3)c3ccccc3C2N(c2ccccc2Cl)C(=S)N1c1cc(C)on1 (centres undefined),55 mm

# Tested on: not listed separately
# Experiment: Antifungal activity against Chrysosporium tropicum MTCC 2821 at 30 ug/ml
# Type: functional
# Details: not given
row,SMILES,inhibition zone (IZ)
1,COc1ccc(N2C(=S)N(c3cc(C)on3)C(C)=C3C(=O)N(c4cc(C)on4)c4ccccc4C32)cc1 (centres undefined),40 mm
2,CC1=C2C(=O)N(c3cc(C)on3)c3ccccc3C2N(c2ccccc2)C(=S)N1c1cc(C)on1 (centres undefined),30 mm
3,CC1=C2C(=O)N(c3cc(C)on3)c3ccccc3C2N(Cc2ccccc2)C(=S)N1c1cc(C)on1 (centres undefined),30 mm
4,CC1=C2C(=O)N(c3cc(C)on3)c3ccccc3C2N(c2ccccc2Cl)C(=S)N1c1cc(C)on1 (centres undefined),25 mm

# Tested on: not listed separately
# Experiment: Antifungal activity against Chrysosporium tropicum MTCC 2821 at 100 ug/ml
# Type: functional
# Details: not given
row,SMILES,inhibition zone (IZ)
1,CC1=C2C(=O)N(c3cc(C)on3)c3ccccc3C2N(c2ccccc2)C(=S)N1c1cc(C)on1 (centres undefined),45 mm
2,CC1=C2C(=O)N(c3cc(C)on3)c3ccccc3C2N(c2ccccc2Cl)C(=S)N1c1cc(C)on1 (centres undefined),40 mm

# Tested on: Rhizopus arrhizus
# Experiment: Antifungal activity against Rhizopus oryzae MTCC 262 at 30 ug/ml
# Type: functional
# Details: read-out: DIZ
row,SMILES,zone of inhibition at 30 µg/mL
1,COc1ccc(N2C(=S)N(c3cc(C)on3)C(C)=C3C(=O)N(c4cc(C)on4)c4ccccc4C32)cc1 (centres undefined),45 mm
2,CC1=C2C(=O)N(c3cc(C)on3)c3ccccc3C2N(c2ccccc2)C(=S)N1c1cc(C)on1 (centres undefined),40 mm
3,CC1=C2C(=O)N(c3cc(C)on3)c3ccccc3C2N(Cc2ccccc2)C(=S)N1c1cc(C)on1 (centres undefined),35 mm
4,CC1=C2C(=O)N(c3cc(C)on3)c3ccccc3C2N(c2ccccc2Cl)C(=S)N1c1cc(C)on1 (centres undefined),35 mm

# Tested on: Rhizopus arrhizus
# Experiment: Antifungal activity against Rhizopus oryzae MTCC 262 at 100 ug/ml
# Type: functional
# Details: read-out: DIZ
row,SMILES,zone of inhibition at 100 µg/mL
1,COc1ccc(N2C(=S)N(c3cc(C)on3)C(C)=C3C(=O)N(c4cc(C)on4)c4ccccc4C32)cc1 (centres undefined),65 mm
2,CC1=C2C(=O)N(c3cc(C)on3)c3ccccc3C2N(c2ccccc2)C(=S)N1c1cc(C)on1 (centres undefined),50 mm
3,CC1=C2C(=O)N(c3cc(C)on3)c3ccccc3C2N(Cc2ccccc2)C(=S)N1c1cc(C)on1 (centres undefined),59 mm
4,CC1=C2C(=O)N(c3cc(C)on3)c3ccccc3C2N(c2ccccc2Cl)C(=S)N1c1cc(C)on1 (centres undefined),50 mm

# Tested on: Fusarium verticillioides
# Experiment: Antifungal activity against Fusarium moniliforme MTCC 1848 at 30 ug/ml
# Type: functional
# Details: read-out: DIZ
row,SMILES,zone of inhibition at 30 µg/mL
1,COc1ccc(N2C(=S)N(c3cc(C)on3)C(C)=C3C(=O)N(c4cc(C)on4)c4ccccc4C32)cc1 (centres undefined),35 mm
2,CC1=C2C(=O)N(c3cc(C)on3)c3ccccc3C2N(c2ccccc2)C(=S)N1c1cc(C)on1 (centres undefined),30 mm
3,CC1=C2C(=O)N(c3cc(C)on3)c3ccccc3C2N(Cc2ccccc2)C(=S)N1c1cc(C)on1 (centres undefined),32 mm
4,CC1=C2C(=O)N(c3cc(C)on3)c3ccccc3C2N(c2ccccc2Cl)C(=S)N1c1cc(C)on1 (centres undefined),30 mm

# Tested on: Fusarium verticillioides
# Experiment: Antifungal activity against Fusarium moniliforme MTCC 1848 at 100 ug/ml
# Type: functional
# Details: read-out: DIZ
row,SMILES,zone of inhibition at 100 µg/mL
1,COc1ccc(N2C(=S)N(c3cc(C)on3)C(C)=C3C(=O)N(c4cc(C)on4)c4ccccc4C32)cc1 (centres undefined),60 mm
2,CC1=C2C(=O)N(c3cc(C)on3)c3ccccc3C2N(c2ccccc2)C(=S)N1c1cc(C)on1 (centres undefined),45 mm
3,CC1=C2C(=O)N(c3cc(C)on3)c3ccccc3C2N(Cc2ccccc2)C(=S)N1c1cc(C)on1 (centres undefined),55 mm
4,CC1=C2C(=O)N(c3cc(C)on3)c3ccccc3C2N(c2ccccc2Cl)C(=S)N1c1cc(C)on1 (centres undefined),45 mm

# Tested on: Curvularia lunata
# Experiment: Antifungal activity against Curvularia lunata MTCC 2030 at 30 ug/ml
# Type: functional
# Details: read-out: DIZ
row,SMILES,zone of inhibition at 30 µg/mL
1,COc1ccc(N2C(=S)N(c3cc(C)on3)C(C)=C3C(=O)N(c4cc(C)on4)c4ccccc4C32)cc1 (centres undefined),40 mm
2,CC1=C2C(=O)N(c3cc(C)on3)c3ccccc3C2N(c2ccccc2)C(=S)N1c1cc(C)on1 (centres undefined),35 mm
3,CC1=C2C(=O)N(c3cc(C)on3)c3ccccc3C2N(Cc2ccccc2)C(=S)N1c1cc(C)on1 (centres undefined),30 mm
4,CC1=C2C(=O)N(c3cc(C)on3)c3ccccc3C2N(c2ccccc2Cl)C(=S)N1c1cc(C)on1 (centres undefined),40 mm

# Tested on: Curvularia lunata
# Experiment: Antifungal activity against Curvularia lunata MTCC 2030 at 100 ug/ml
# Type: functional
# Details: read-out: DIZ
row,SMILES,zone of inhibition at 100 µg/mL
1,COc1ccc(N2C(=S)N(c3cc(C)on3)C(C)=C3C(=O)N(c4cc(C)on4)c4ccccc4C32)cc1 (centres undefined),60 mm
2,CC1=C2C(=O)N(c3cc(C)on3)c3ccccc3C2N(c2ccccc2)C(=S)N1c1cc(C)on1 (centres undefined),40 mm
3,CC1=C2C(=O)N(c3cc(C)on3)c3ccccc3C2N(Cc2ccccc2)C(=S)N1c1cc(C)on1 (centres undefined),55 mm
4,CC1=C2C(=O)N(c3cc(C)on3)c3ccccc3C2N(c2ccccc2Cl)C(=S)N1c1cc(C)on1 (centres undefined),55 mm

# Tested on: Culex quinquefasciatus
# Experiment: Insecticidal activity against Culex quinquefasciatus 4th instar larvae
# Type: functional
# Details: not given
row,SMILES,LC90
1,COc1ccc(N2C(=S)N(c3cc(C)on3)C(C)=C3C(=O)N(c4cc(C)on4)c4ccccc4C32)cc1 (centres undefined),3.65 µg/mL
2,CC1=C2C(=O)N(c3cc(C)on3)c3ccccc3C2N(c2ccccc2)C(=S)N1c1cc(C)on1 (centres undefined),3.1 µg/mL
3,CC1=C2C(=O)N(c3cc(C)on3)c3ccccc3C2N(Cc2ccccc2)C(=S)N1c1cc(C)on1 (centres undefined),1.59 µg/mL
4,CC1=C2C(=O)N(c3cc(C)on3)c3ccccc3C2N(c2ccccc2Cl)C(=S)N1c1cc(C)on1 (centres undefined),1 µg/mL

# Same assay, conditions: Culex quinquefasciatus
row,SMILES,LC50
1,COc1ccc(N2C(=S)N(c3cc(C)on3)C(C)=C3C(=O)N(c4cc(C)on4)c4ccccc4C32)cc1 (centres undefined),2.09 µg/mL
2,CC1=C2C(=O)N(c3cc(C)on3)c3ccccc3C2N(c2ccccc2)C(=S)N1c1cc(C)on1 (centres undefined),1.02 µg/mL
3,CC1=C2C(=O)N(c3cc(C)on3)c3ccccc3C2N(Cc2ccccc2)C(=S)N1c1cc(C)on1 (centres undefined),2.27 µg/mL
4,CC1=C2C(=O)N(c3cc(C)on3)c3ccccc3C2N(c2ccccc2Cl)C(=S)N1c1cc(C)on1 (centres undefined),0.98 µg/mL
